Measured values reported in ChEMBL document CHEMBL2034824, “Pyridyl-2,5-diketopiperazines as potent, selective, and orally bioavailable oxytocin antagonists: synthesis, pharmacokinetics, and in vivo potency” (J Med Chem, 2012).
≈ marks a conversion by molar mass, not a printed value.

Columns and labels:
[1] = AUC in dog at 0.6 mg/kg, po; assay type: ADME, organism-based, Canis lupus familiaris; set-up: dose 0.6 mg/kg, route oral; conditions: plasma
[2] = Intrinsic clearance in cynomolgus monkey liver microsomes; assay type: ADME, Macaca fascicularis, Microsome
Liver microsomes [3] = assay: Intrinsic clearance in human liver microsomes; assay type: ADME, Microsome
Liver = assay: Intrinsic clearance in dog liver microsomes; assay type: ADME, Canis lupus familiaris, Microsome
Oxytocin receptor = biological target: T1, Oxytocin receptor (Homo sapiens, UniProt P30559); assay: Displacement of [3H]oxytocin from human oxytocin receptor
T1 sequence (P30559 whole entry): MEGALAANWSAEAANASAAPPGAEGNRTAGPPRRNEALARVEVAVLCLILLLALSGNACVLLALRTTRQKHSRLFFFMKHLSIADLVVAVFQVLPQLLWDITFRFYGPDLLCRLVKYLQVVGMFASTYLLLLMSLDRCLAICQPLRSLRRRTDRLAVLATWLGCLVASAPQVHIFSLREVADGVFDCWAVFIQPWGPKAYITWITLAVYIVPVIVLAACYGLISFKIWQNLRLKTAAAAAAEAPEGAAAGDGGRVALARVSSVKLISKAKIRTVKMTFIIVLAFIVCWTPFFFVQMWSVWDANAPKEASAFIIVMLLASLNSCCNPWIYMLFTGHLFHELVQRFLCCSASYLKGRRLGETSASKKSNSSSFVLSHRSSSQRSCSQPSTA

[4] = Oral bioavailability in rat at 5 mg/kg; assay type: ADME, organism-based; conditions: in vivo
[5] = Clearance in rat at 5 mg/kg; assay type: ADME, organism-based; set-up: dose 5 mg/kg; conditions: in vivo
[6] = Aqueous solubility of the compound by HPLC analysis; assay type: physicochemical
Liver microsomes [7] = assay: Intrinsic clearance in rat liver microsomes; assay type: ADME, Microsome
[8] = Clearance in dog at 0.6 mg/kg; assay type: ADME, organism-based, Canis lupus familiaris; set-up: dose 0.6 mg/kg; conditions: in vivo
[9] = AUC in rat at 5 mg/kg, po; assay type: ADME, organism-based; set-up: dose 5 mg/kg, route oral; conditions: plasma
[10] = Oral bioavailability in dog at 0.6 mg/kg; assay type: ADME, organism-based, Canis lupus familiaris; conditions: in vivo
serum albumin [11] = biological target: serum albumin (Rattus norvegicus, UniProt P02770); assay: Binding affinity to rat serum albumin; assay type: ADME; conditions: read-out: PB (converted)
[12] = Lipophilicity, log D of the compound by HPLC analysis; assay type: physicochemical
serum albumin [13] = biological target: serum albumin (Homo sapiens, UniProt P02768); assay: Binding affinity to human serum albumin; assay type: ADME; conditions: read-out: PB (converted)
Sequence of serum albumin (Homo sapiens, UniProt P02768) (P02768 whole entry): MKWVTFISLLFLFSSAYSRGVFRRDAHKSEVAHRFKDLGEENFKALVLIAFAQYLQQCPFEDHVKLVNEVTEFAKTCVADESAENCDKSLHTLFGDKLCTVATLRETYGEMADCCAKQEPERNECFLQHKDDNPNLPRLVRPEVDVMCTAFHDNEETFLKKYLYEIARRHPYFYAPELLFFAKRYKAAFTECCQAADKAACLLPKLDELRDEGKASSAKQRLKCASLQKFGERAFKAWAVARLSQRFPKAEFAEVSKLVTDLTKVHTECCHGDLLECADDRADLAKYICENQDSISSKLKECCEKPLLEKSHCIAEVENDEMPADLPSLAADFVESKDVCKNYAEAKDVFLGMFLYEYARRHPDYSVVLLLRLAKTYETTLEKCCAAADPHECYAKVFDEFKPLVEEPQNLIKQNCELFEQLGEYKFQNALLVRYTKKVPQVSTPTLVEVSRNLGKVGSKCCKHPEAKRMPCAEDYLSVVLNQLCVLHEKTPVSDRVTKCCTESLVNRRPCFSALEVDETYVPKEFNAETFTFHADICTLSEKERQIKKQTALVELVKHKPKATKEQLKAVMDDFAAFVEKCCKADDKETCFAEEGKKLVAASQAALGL

Sequence of serum albumin (Rattus norvegicus, UniProt P02770) (P02770 whole entry): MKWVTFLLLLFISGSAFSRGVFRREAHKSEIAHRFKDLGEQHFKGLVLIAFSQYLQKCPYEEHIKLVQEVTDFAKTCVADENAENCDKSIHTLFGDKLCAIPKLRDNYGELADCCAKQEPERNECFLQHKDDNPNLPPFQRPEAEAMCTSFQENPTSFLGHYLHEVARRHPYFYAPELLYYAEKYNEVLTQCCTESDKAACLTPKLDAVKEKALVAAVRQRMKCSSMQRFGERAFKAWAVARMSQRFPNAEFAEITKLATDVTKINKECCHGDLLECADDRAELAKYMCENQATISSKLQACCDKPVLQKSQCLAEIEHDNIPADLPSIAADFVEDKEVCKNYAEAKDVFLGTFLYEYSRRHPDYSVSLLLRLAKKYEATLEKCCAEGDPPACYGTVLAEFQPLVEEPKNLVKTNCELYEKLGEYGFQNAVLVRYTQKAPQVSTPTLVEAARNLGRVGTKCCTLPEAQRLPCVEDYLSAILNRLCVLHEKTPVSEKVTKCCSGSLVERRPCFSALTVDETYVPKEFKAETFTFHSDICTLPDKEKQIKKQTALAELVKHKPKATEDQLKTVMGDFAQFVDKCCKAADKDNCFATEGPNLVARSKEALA

SMILES | AUC [1] | CLH [2] | CLH (Liver microsomes [3]) | CLH (Liver) | Ki (Oxytocin receptor) | bioavailability [4] | clearance [5] | solubility [6] | CLH (Liver microsomes [7]) | clearance [8] | AUC [9] | bioavailability [10] | fraction unbound (serum albumin [11]) | logD [12] | fraction unbound (serum albumin [13])
Cc1ccc([C@H](C(=O)N2CCOCC2)N2C(=O)[C@@H](C3Cc4ccccc4C3)NC(=O)[C@H]2CC(C)(C)C)cn1 | 21 ng·h/mL | 21 mL/min/g | 4 mL/min/g | 9 mL/min/g | 79.4 pM | 18% | 20 mL/min/kg | 213 µg/mL (≈ 411 µM) | 1 mL/min/g | 24 mL/min/kg | 770 ng·h/mL | 5% | – | – | –
CC[C@H](C)[C@@H]1C(=O)N[C@H](C2Cc3ccccc3C2)C(=O)N1[C@@H](C(=O)N(C)C)c1ccc(C)[n+]([O-])c1 | 73 ng·h/mL | 1 mL/min/g | 1 mL/min/g | – | 1000 pM | < 1% | 28 mL/min/kg | > 242 µg/mL | 1 mL/min/g | 14 mL/min/kg | 24 ng·h/mL | 11% | – | – | –
CC[C@@H](C)[C@@H]1C(=O)N[C@H](C2Cc3ccccc3C2)C(=O)N1[C@@H](C(=O)N(C)C)c1ccc(C)nc1 | – | 11 mL/min/g | 3 mL/min/g | 1 mL/min/g | 1000 pM | 82% | 23 mL/min/kg | > 237 µg/mL | 1 mL/min/g | – | 3360 ng·h/mL | – | – | – | –
CCC(CC)[C@@H]1C(=O)N[C@H](C2Cc3ccccc3C2)C(=O)N1[C@@H](C(=O)NC)c1ccc(C)nc1C | – | 31 mL/min/g | – | – | 50.1 pM | – | – | – | 2 mL/min/g | – | 1240 ng·h/mL | – | – | – | –
CC[C@H](C)[C@@H]1C(=O)N[C@H](C2Cc3ccccc3C2)C(=O)N1[C@@H](C(=O)N1CCOCC1)c1cc(C)cnc1C | – | – | – | – | 794 pM | – | – | – | – | – | – | – | – | – | –
COc1ccc([C@H](C(=O)N(C)C)N2C(=O)[C@@H](C3Cc4ccccc4C3)NC(=O)[C@H]2CC(C)C)cn1 | 158 ng·h/mL | – | – | – | 398 pM | 62% | 23 mL/min/kg | 216 µg/mL (≈ 451 µM) | – | 8 mL/min/kg | 2230 ng·h/mL | 13% | 0.14 | 2.7 | 0.08
CC[C@H](C)[C@@H]1C(=O)N[C@H](C2Cc3ccccc3C2)C(=O)N1[C@@H](C(=O)NC)c1cnc(C)cc1C | – | 20 mL/min/g | 7 mL/min/g | 4 mL/min/g | 63.1 pM | 11% | 23 mL/min/kg | – | 1 mL/min/g | – | 407 ng·h/mL | – | – | – | –
CCC(CC)[C@@H]1C(=O)N[C@H](C2Cc3ccccc3C2)C(=O)N1[C@@H](C(=O)N1CCOCC1)c1ccc(C)nc1 | – | 18 mL/min/g | 12 mL/min/g | 5 mL/min/g | 25.1 pM | 55% | 23 mL/min/kg | – | 1 mL/min/g | – | 1380 ng·h/mL | – | – | – | –
CC[C@H](C)[C@@H]1C(=O)N[C@H](C2Cc3ccccc3C2)C(=O)N1[C@@H](C(=O)N1CCOCC1)c1ccc(C)nc1 | 55 ng·h/mL | 6 mL/min/g | 3 mL/min/g | 2 mL/min/g | 158 pM | 54% | 27 mL/min/kg | > 268 µg/mL | 1 mL/min/g | 23 mL/min/kg | 1450 ng·h/mL | 14% | – | – | –
CC[C@H](C)[C@@H]1C(=O)N[C@H](C2Cc3ccccc3C2)C(=O)N1[C@@H](C(=O)N(C)C)c1ccc(C)nc1 | 347 ng·h/mL | 9 mL/min/g | 2 mL/min/g | 1 mL/min/g | 200 pM | 62% | 19 mL/min/kg | > 254 µg/mL | 1 mL/min/g | 10 mL/min/kg | 2270 ng·h/mL | 39% | – | – | –
CC[C@H](C)[C@@H]1C(=O)N[C@H](C2Cc3ccccc3C2)C(=O)N1[C@@H](C(=O)N1CCOCC1)c1cnc(C)cc1C | – | 16 mL/min/g | 1 mL/min/g | 4 mL/min/g | 50.1 pM | – | – | – | 1 mL/min/g | – | 1110 ng·h/mL | – | – | – | –
CC[C@H](C)[C@@H]1C(=O)N[C@H](C2Cc3ccccc3C2)C(=O)N1[C@@H](C(=O)N(C)C)c1cc(C)cnc1C | – | 13 mL/min/g | 5 mL/min/g | 2 mL/min/g | 794 pM | – | – | – | 1 mL/min/g | – | 1370 ng·h/mL | – | – | – | –
CC(C)C[C@@H]1C(=O)N[C@H](C2Cc3ccccc3C2)C(=O)N1[C@@H](C(=O)N1CCOCC1)c1ccc(N(C)C)nc1 | – | – | – | – | 316 pM | – | – | 235 µg/mL (≈ 440 µM) | – | – | 80 ng·h/mL | – | 0.29 | 2.9 | 0.3
CCC(CC)[C@@H]1C(=O)N[C@H](C2Cc3ccccc3C2)C(=O)N1[C@@H](C(=O)N(C)C)c1ccc(C)nc1 | 255 ng·h/mL | 12 mL/min/g | 11 mL/min/g | 1 mL/min/g | 50.1 pM | 36% | 20 mL/min/kg | – | 2 mL/min/g | 19 mL/min/kg | 1810 ng·h/mL | 47% | – | – | –
CCC(CC)[C@@H]1C(=O)N[C@H](C2Cc3ccccc3C2)C(=O)N1[C@@H](C(=O)N(C)C)c1ccc(C)nc1C | – | 29 mL/min/g | 18 mL/min/g | 1 mL/min/g | 31.6 pM | – | – | – | 3 mL/min/g | – | – | – | – | – | –
CC[C@@H](C)[C@@H]1C(=O)N[C@H](C2Cc3ccccc3C2)C(=O)N1[C@@H](C(=O)N1CCOCC1)c1ccc(C)nc1 | 138 ng·h/mL | 8 mL/min/g | 4 mL/min/g | 2 mL/min/g | 501 pM | 44% | 39 mL/min/kg | > 280 µg/mL | 1 mL/min/g | 20 mL/min/kg | 1590 ng·h/mL | 31% | – | – | –
CC[C@H](C)[C@@H]1C(=O)N[C@H](C2Cc3ccccc3C2)C(=O)N1[C@@H](C(=O)N(C)C)c1cnc(C)cc1C | 140 ng·h/mL | 32 mL/min/g | 9 mL/min/g | 1 mL/min/g | 39.8 pM | – | – | – | 1 mL/min/g | 12 mL/min/kg | 2680 ng·h/mL | 17% | – | – | –
COc1ccc([C@H](C(=O)N2CCOCC2)N2C(=O)[C@@H](C3Cc4ccccc4C3)NC(=O)[C@H]2CC(C)C)cn1 | – | – | – | – | 251 pM | 88% | 35 mL/min/kg | 249 µg/mL (≈ 478 µM) | – | – | 2130 ng·h/mL | – | 0.22 | 2.7 | 0.24
CC(C)C[C@@H]1C(=O)N[C@H](C2Cc3ccccc3C2)C(=O)N1[C@@H](C(=O)N(C)C)c1ccc(=O)[nH]c1 | – | – | – | – | 3160 pM | – | – | > 240 µg/mL | – | – | – | – | 0.63 | 1.3 | 0.39
CC(C)C[C@@H]1C(=O)N[C@H](C2Cc3ccccc3C2)C(=O)N1[C@@H](C(=O)N(C)C)c1ccc(N(C)C)nc1 | – | – | – | – | 251 pM | – | – | 233 µg/mL (≈ 474 µM) | – | – | 135 ng·h/mL | – | 0.18 | 2.6 | 0.26
CC[C@H](C)[C@@H]1C(=O)N[C@H](C2Cc3ccccc3C2)C(=O)N1[C@@H](C(=O)NC)c1ccc(C)nc1C | 58 ng·h/mL | 6 mL/min/g | 5 mL/min/g | 5 mL/min/g | 398 pM | 51% | 25 mL/min/kg | – | 1 mL/min/g | 22 mL/min/kg | 1730 ng·h/mL | 13% | – | – | –
CC[C@H](C)[C@@H]1C(=O)N[C@H](C2Cc3ccccc3C2)C(=O)N1[C@@H](C(=O)NC)c1cc(C)cnc1C | – | 5 mL/min/g | 3 mL/min/g | 3 mL/min/g | 1260 pM | – | – | – | 1 mL/min/g | – | – | – | – | – | –
Cc1ccc([C@H](C(=O)N2CCCC2)N2C(=O)[C@@H](C3Cc4ccccc4C3)NC(=O)[C@H]2CC(C)C)cn1 | – | – | – | – | 501 pM | 36% | 33 mL/min/kg | 241 µg/mL (≈ 493 µM) | – | – | 920 ng·h/mL | – | 0.3 | 2.3 | 0.24
Cc1ccc([C@H](C(=O)N2CCOCC2)N2C(=O)[C@@H](C3Cc4ccccc4C3)NC(=O)[C@H]2CC2CC2)cn1 | – | – | – | – | 5010 pM | – | – | > 258 µg/mL | – | – | – | – | – | – | –
Cc1ccc([C@H](C(=O)N2CCOCC2)N2C(=O)[C@@H](C3Cc4ccccc4C3)NC(=O)[C@H]2CC(C)C)cn1 | 53 ng·h/mL | – | – | – | 398 pM | – | – | > 253 µg/mL | – | 17 mL/min/kg | 811 ng·h/mL | 10% | 0.38 | 2.1 | 0.33
Cc1ccc([C@H](C(=O)N(C)C)N2C(=O)[C@@H](C3Cc4ccccc4C3)NC(=O)[C@H]2CC2CC2)cn1 | – | – | – | – | 5010 pM | – | – | 230 µg/mL (≈ 499 µM) | – | – | – | – | – | – | –
Cc1ccc([C@H](C(=O)N(C)C)N2C(=O)[C@@H](C3Cc4ccccc4C3)NC(=O)[C@H]2CC(C)(C)C)cn1 | – | 8 mL/min/g | 6 mL/min/g | 1 mL/min/g | 63.1 pM | – | – | > 242 µg/mL | 3 mL/min/g | – | 618 ng·h/mL | – | – | – | –
